# Reference: patent publication US20250285714A1, “A PHARMACEUTICAL PLATFORM TECHNOLOGY FOR DRUG DISCOVERY AND CONSUMER HEALTH PRODUCT DEVELOPMENT” (SINOVEDA CANADA INC., priority 2021, published 2025)
# What was measured:
# Assay type in all cases: cell-based, human
# HepG2 cells [1] = test: rtPCR TaqMan array of cancer pathway genes in treated HepG2 cells; conditions: 6 h; CBD 17, CBC 23, CBN 20, 1:1:1 17, sorafenib 12 μg/ml
# Protocol: rt-PCR: Target cancer gene pathways will be analyzed using a custom Taqman array card exploring 91 unique genes involved with a few cancer pathways.
# Two million HepG2 cells in IMDM media with 20% FBS, and 1% ethanol were seeded in T75 flasks and incubated at 37° C., 7.5% CO2 until 70-80% confluent (approx. […]). The media were replenished with media containing individual cannabinoids (CBD 17 μg/ml, CBC 23 μg/ml, CBN 20 μg/ml) and cannabinoid mixture of CBD:CBC:CBN of 1:1:1 (17 μg/ml) and incubated for 6 hours prior to harvest. […] Untreated cells were included as a negative control Glyceraldehyde-3-phosphate dehydrogenase (GAPDH) was included as an endogenous control and used for normalization of the data.
# RNA was extracted using Invitrogen's Dynabead mRNA DIRECT kit using the recommended protocol to provide 50 μL of a purified mRNA solution. […] of RT master mix was mixed into the mRNA solution and the mixture left to react at 37° C. for 60 minutes. Reverse transcriptase inactivation was performed at 95° C. for 5 minutes and the resulting cDNA samples were kept at 4° C. until use. Fifty-five microliters of TaqMan Fast Advance master mix were added to an equal amount of cDNA sample containing 1 μg/100 μl of cDNA, which was loaded into each card reservoir. The cards were centrifuged twice at 1200 RPM for 3 minutes in a Legend XFR centrifuge and the rtPCR reaction was conducted in a QuantStudio7 PCR instrument using the standard settings with 40 amplification cycles.
# Assessment of cancer gene pathways were carried out using custom designed TaqMan array cards exploring 86 genes linked to numerous cancer related pathways. […] In addition to individual pathways, genes linked to specific cellular processes were also explored.
# HepG2 cells [2] = test: HepG2 cell proliferation XTT assay; conditions: HepG2 in-vitro cell model
# Protocol: Cell assays: HepG2 cells were obtained from the American Type Culture Collection (ATCC). Cryopreserved cells in DMEM with 10% DMSO were thawed and diluted 10-fold in phenol red free DMEM media containing fetal 10% bovine serum, 100 μg/ml penicillin/streptomycin, supplemented with Glutamax™ and sodium pyruvate. Subsequently, cells were centrifuged at 20 g for 10 minutes. The cells were resuspended in the same media to a concentration of 2×10^5 cells/ml. Ninety-six well cell culture treated flat bottom plates were seeded with 7.5×10^3 HepG2 cells and incubated at 37° C., 5% CO2, >95% relative humidity for 18 hours to allow cellular adhesion after which media was replaced with like media containing 1-20% FBS and various test compounds (50 μg/ml to 50 ng/ml). […] Formazan production was measured 450 nm Varioskan lux at on a spectrophotometer. Non-specific absorption was measured at 660 nm and subtracted from the reference measurement at 450 nm. […]
# Ternary cannabinoid assays: For tertiary cannabinoid compound mixtures, ratio mixtures of CBD:CBC:CBN were randomly chosen between 9:3:1 to 1:1:1 and CBN:CBC:CBD between 3:2:1 to 1:1:1 in IMDM media supplemented with 20% FBS and 1% ethanol and CBD:CBC:CBN ratios between 9:3:1 to 1:1:1 in DMEM media supplemented with 1% FBS. Cannabinoids were mixed and diluted in the media ready for serial dilution. […]
# HepG2 cells [3] = test: In-cell Western-blot protein expression in treated HepG2 cells; conditions: six hour treatment; CBD 17, CBC 23, CBN 20, Sorafenib 12, SCI-111 17, SCI-521 17 μg/ml
# Protocol: In-cell Western-blot analysis: Protein expression was assessed by seeding 1000 HepG2 cells/well from cyro frozen stocks into 384 well optical bottom black culture plates from Thermo-Scientific (item 142761) in IMDM media with 20% FBS and 1% ethanol. […] After a six hour treatment, the cells were fixated with 4% formaldehyde for 15 minutes, permeated with 0.1% triton-x100 for 10 minutes, and left in blocking buffer (phosphate buffered saline (PBS) with 3% bovine serum albumin (BSA)) overnight at 4 degrees Celsius. The following day, the cells were rinsed with PBS, incubated with 25 μl PBS containing primary antibody (Table 1) for 3 hours at 25° C. Subsequently, the primary antibody was removed, cells were rinsed twice with PBS, and incubated with 25 μl of PBS containing the secondary antibody (Rabbit: Alexa Fluor 790 donkey anti-rabbit IgG (H+L) Lot 2409042; Mouse: Alexa Fluor 790 donkey anti-mouse IgG (H+L) Lot 2300923) at a concentration of 1:2000. Draq5 (1:2000) was added for normalization of data. After an hour incubation in the secondary antibody, the cells were rinsed with PBS and readings at 700 and 800 nm were acquired on a Licor Odyssey fluorescence imager with a resolution of 21 μm. Analysis was subsequently performed with Empiria Studio 2.1. A total of 5 samples were collected per antibody and the sample size was reduced to 3 for the statistical analysis.
structure (smiles),measurement,setting,value
"C=C(C)[C@@H]1CCC(C)=C[C@H]1c1c(O)cc(CCCCC)cc1O [CBD, Cannabidiol, reference compound]","rtPCR Log2 fold change relative to untreated cells, BAD (Apoptosis)",HepG2 cells [1],−1.49 Log2 fold change
same,"rtPCR Log2 fold change relative to untreated cells, BAX (Apoptosis)",HepG2 cells [1],−1.103 Log2 fold change
same,"rtPCR Log2 fold change relative to untreated cells, BCL2 (Apoptosis)",HepG2 cells [1],4.139 Log2 fold change
same,"rtPCR Log2 fold change relative to untreated cells, BCL2L1 (Apoptosis)",HepG2 cells [1],−1.414 Log2 fold change
same,"rtPCR Log2 fold change relative to untreated cells, CAMK1 (Ca signaling)",HepG2 cells [1],−1.329 Log2 fold change
same,"rtPCR Log2 fold change relative to untreated cells, CASP3 (Apoptosis)",HepG2 cells [1],−1.165 Log2 fold change
same,"rtPCR Log2 fold change relative to untreated cells, CCND1 (Cell Cycle Arrest)",HepG2 cells [1],−1.396 Log2 fold change
same,"rtPCR Log2 fold change relative to untreated cells, CCND2 (Cell Cycle Arrest)",HepG2 cells [1],−1.032 Log2 fold change
same,"rtPCR Log2 fold change relative to untreated cells, CDK1 (Cell Cycle Arrest)",HepG2 cells [1],−1.257 Log2 fold change
same,"rtPCR Log2 fold change relative to untreated cells, CDK4 (Cell Cycle Arrest)",HepG2 cells [1],−1.517 Log2 fold change
same,"rtPCR Log2 fold change relative to untreated cells, CDK6 (Cell Cycle Arrest)",HepG2 cells [1],−1.224 Log2 fold change
same,"rtPCR Log2 fold change relative to untreated cells, CTNNB1 (Cellular Adhesion)",HepG2 cells [1],−1.164 Log2 fold change
same,"rtPCR Log2 fold change relative to untreated cells, GSK3B (Cellular Adhesion)",HepG2 cells [1],−1.409 Log2 fold change
same,"rtPCR Log2 fold change relative to untreated cells, MAP1LC3A (MAP kinase)",HepG2 cells [1],−1.527 Log2 fold change
same,"rtPCR Log2 fold change relative to untreated cells, MAP3K (MAP kinase)",HepG2 cells [1],−1.213 Log2 fold change
same,"rtPCR Log2 fold change relative to untreated cells, MAPK8 (MAP kinase)",HepG2 cells [1],−2.27 Log2 fold change
same,"rtPCR Log2 fold change relative to untreated cells, MITF (Drug Resistance)",HepG2 cells [1],−4.196 Log2 fold change
same,"rtPCR Log2 fold change relative to untreated cells, MNT (Cell Cycle Arrest)",HepG2 cells [1],−1.533 Log2 fold change
same,"rtPCR Log2 fold change relative to untreated cells, MTOR (PI3K/AKT/MTOR)",HepG2 cells [1],−1.055 Log2 fold change
same,"rtPCR Log2 fold change relative to untreated cells, PAK3 (MAP kinase)",HepG2 cells [1],−1.926 Log2 fold change
same,"rtPCR Log2 fold change relative to untreated cells, PIK3C2A (PI3K/AKT/MTOR)",HepG2 cells [1],−1.161 Log2 fold change
same,"rtPCR Log2 fold change relative to untreated cells, PPARG (Receptors)",HepG2 cells [1],−1.826 Log2 fold change
same,"rtPCR Log2 fold change relative to untreated cells, RAC1 (MAP kinase)",HepG2 cells [1],−1.274 Log2 fold change
same,"rtPCR Log2 fold change relative to untreated cells, RASA1 (MAP kinase)",HepG2 cells [1],−1.356 Log2 fold change
same,"rtPCR Log2 fold change relative to untreated cells, ROCK1 (Cellular Adhesion)",HepG2 cells [1],−1.013 Log2 fold change
same,"rtPCR Log2 fold change relative to untreated cells, SMAD2 (TGF signaling)",HepG2 cells [1],−1.437 Log2 fold change
same,"rtPCR Log2 fold change relative to untreated cells, TAZ (HIPPO)",HepG2 cells [1],−1.766 Log2 fold change
same,"rtPCR Log2 fold change relative to untreated cells, gene name not printed (Apoptosis, row r54)",HepG2 cells [1],−1.09 Log2 fold change
same,"rtPCR Log2 fold change relative to untreated cells, gene name not printed (Cell Cycle Arrest, row r42)",HepG2 cells [1],−1.332 Log2 fold change
same,"rtPCR Log2 fold change relative to untreated cells, gene name not printed (Cellular Adhesion, row r57)",HepG2 cells [1],−1.436 Log2 fold change
same,"rtPCR Log2 fold change relative to untreated cells, gene name not printed (PI3K/AKT/MTOR, row r20)",HepG2 cells [1],−1.565 Log2 fold change
same,"rtPCR Log2 fold change relative to untreated cells, gene name not printed (PI3K/AKT/MTOR, row r22)",HepG2 cells [1],−1.174 Log2 fold change
same,"rtPCR Log2 fold change relative to untreated cells, gene name not printed (Receptors, row r7)",HepG2 cells [1],−6.09 Log2 fold change
same,Potency/efficacy compared to sorafenib,HepG2 cells [2],more potent
same,"Protein fold change, DVLD (Cellular Adhesion)",HepG2 cells [3],1.67 Fold change
same,"Protein fold change, HER2 (Receptor)",HepG2 cells [3],1.34 Fold change
same,"Protein fold change, MEK PO4 (MAP kinase/PI3K)",HepG2 cells [3],1.40 Fold change
same,"Protein fold change, MET PO4 (Receptor)",HepG2 cells [3],1.52 Fold change
same,"Protein fold change, PI3K (MAP kinase/PI3K)",HepG2 cells [3],2.05 Fold change
same,"Protein fold change, PTEN (MAP kinase/PI3K)",HepG2 cells [3],0.80 Fold change
same,"Protein fold change, TEAD2 (HIPPO signaling)",HepG2 cells [3],1.46 Fold change
same,"Protein fold change, VEGA (Angiogenesis)",HepG2 cells [3],1.33 Fold change
same,"Protein fold change, c-MYC (Apoptosis)",HepG2 cells [3],1.55 Fold change
same,"Protein fold change, p53 (Apoptosis)",HepG2 cells [3],1.28 Fold change
